Measured values published in patent publication US6696441B1, “Inhibition of p53-induced stress response” (The Regents of the University of California, priority 2000, dated 2004).

Columns and labels:
[1] = tested on: malignant lymphocytes from two patients with chronic lymphocytic leukemia [CLL]; experiment: Effect on B-CLL viability (PI exclusion by FACS, MTT); format: cell-based, human; settings: 3 days culture; viable cells by PI FACS and MTT; concentrations up to 100 micromolar; FIG. 1
Description: (§1) The malignant lymphocytes from two patients with chronic lymphocytic leukemia [CLL] were isolated by ficoll-hypaque sedimentation and suspended at a density of 1 million cells per milliliter in RPMI 1640 medium supplemented with 10% fetal bovine serum. Two hundred microliter aliquots of cells were dispersed in the wells of culture plates containing the indicated final concentrations of either PFT-α (“PFT-open”) or IBT (PFT-closed). After 3 days culture, viable cells were enumerated by fluorescence-activated cell sorting [FACS] after staining with propidium iodide [PI]. Viable cells excluded the dye [open circles]. In addition, cell metabolism was assessed by the ability of the cells to […] the tetrazolium dye MTT [closed squares].

[2] = tested on: Chronic lymphocytic leukemia [CLL] cells; experiment: Protection against spontaneous apoptosis and apoptosis induced by fludarabine (PI negative and DiOC6 high cells by FACS); format: cell-based, human; settings: one micromolar, 3 days culture, FIG. 2; for effect on untreated CLL cells (spontaneous apoptosis): PI negative and DiOC6 high cells
Description: as §1
Chronic lymphocytic leukemia [CLL] cells were cultured for 3 days as described in Example 2. Some of the cultures were supplemented with one micromolar of PFT-open or PFT-closed, as indicated. In the experiment shown in the bottom panel of FIG. 2, some of the cultures also contained the cytotoxic adenine nucleoside analog fludarabine [abbreviated F-AraA]. Fludarabine is the first line treatment for CLL, and the toxicity of the drug is dependent upon the p53 pathway. To assess healthy, viable cells, staining was done with both PI, as indicated in Example 2, and with the mitochondrial dye DiOC6. Cells that were both PI negative and DIOC6 high were enumerated by FACS.

[3] = Cyclization of PFT-α to IBT in DMSO stock diluted with water, reversed phase HPLC at 25° C. over time; format: physicochemical
Description: (§2) The preparation of PFT-α was accomplished as shown in Scheme 1 by reacting 4-methyl-2-bromoacetophenone with 2-amino-4,5,6,7-tetrahydro-benzothiazole. Upon recrystallization of the PFT-α from isopropyl alcohol, it was noticed that PFT-α readily ring-closed completely to the imidazo[2,1-b]benzothiazole (IBT). Therefore, a subsequent investigation was undertaken to study the propensity of PFT-α to ring-close in protic solvents. […] Thus, PFT-α was dissolved in DMSO and water dilutions were made from this stock.

[4] = Ring closure of PFT-α in protic solvents at room temperature; format: physicochemical
Description: as §2

[5] = nmr time course of PFT-α in DMSO-d6; format: physicochemical; settings: time course in DMSO-d6, proton nmr
mice = settings: cited from earlier work

| SMILES | CLL survival / toxicity [1] | effect on untreated CLL cells (spontaneous apoptosis) [2] | protective effect on CLL cells treated with F-AraA (fludarabine) ([2]; with F-AraA, compared with PFT-α) | % cyclized to IBT ([3]; Time 0 h) [%] | % cyclized to IBT ([3]; Time 18 h) [%] | % cyclized to IBT ([3]; Time 48 h) [%] | propensity to ring-close in protic solvents [4] | conversion of PFT-α to IBT [5] | protection from lethal genotoxic stress (mice; 6-8 Gy of gamma radiation) | promotion of tumor formation (mice) |
| --- | --- | --- | --- | --- | --- | --- | --- | --- | --- | --- |
| Cc1ccc(-c2cn3c4c(sc3n2)CCCC4)cc1 [IBT] | non-toxic | nearly equivalent effects | less protective effects |  |  |  |  |  |  |  |
| Cc1ccc(C(=O)Cn2c3c(sc2=N)CCCC3)cc1 [PFT-α] | dose-dependently reduced CLL survival | nearly equivalent effects |  | 5 | 28 | 42 | begins cyclizing at room temperature immediately upon dissolution in protic solvents | spontaneous conversion of PFT-α to IBT | protected mice from lethal genotoxic stress | without itself promoting the formation of tumors |
